Experimental data as given in patent US5430062A, “Stilbene derivatives as anticancer agents” (priority 1993, dated 1995).
Read-outs that look alike come from different tables or passages of the source.

Key:
[1] = tested on: CAKI-1 renal cancer; experiment: Cytotoxicity, CAKI-1
[2] = tested on: tubulin; experiment: Inhibition of tubulin polymerization (turbidimetry); format: biochemical, bovine
[3] = tested on: SF-295 CNS cancer; experiment: Cytotoxicity, SF-295; conditions: read-out: cytotoxicity GI50, SF-295; 50% growth inhibition; average of two determinations; 8640 min
[4] = tested on: OVCAR-3 ovarian cancer; experiment: Cytotoxicity, OVCAR-3
[5] = tested on: M14 melanoma; experiment: Cytotoxicity, M14
[6] = tested on: DMS 273 small cell lung cancer; experiment: Cytotoxicity, DMS 273; conditions: read-out: cytotoxicity GI50, DMS 273; 50% growth inhibition; average of two determinations; 8640 min
[7] = tested on: HL-60 (TB) leukemia; experiment: Cytotoxicity, HL-60(TB) leukemia; conditions: read-out: cytotoxicity GI50, HL-60(TB); 50% growth inhibition; average of two determinations; 8640 min
[8] = tested on: COLO 205 colon cancer; experiment: Cytotoxicity, COLO 205; conditions: read-out: cytotoxicity GI50, COLO 205; 50% growth inhibition; average of two determinations; 8640 min
[9] = read-out: cytotoxicity GI50, CAKI-1; 50% growth inhibition; average of two determinations; 8640 min
[10] = Table X, different glutamate preparation (1M monosodium glutamate and GTP), read-out: inhibn of tubulin polymn IC50 (±SD)
[11] = read-out: cytotoxicity GI50, OVCAR-3; 50% growth inhibition; average of two determinations; 8640 min
[12] = read-out: cytotoxicity GI50, M14; 50% growth inhibition; average of two determinations; 8640 min
[13] = benzylanilines, Table X series, read-out: tubulin polymerization IC50
[14] = read-out: cytotoxicity GI50, M14, 50% growth inhibition, average of two determinations, 8640 min
[15] = read-out: cytotoxicity GI50, OVCAR-3, 50% growth inhibition, average of two determinations, 8640 min

Row | Compound | GI50 [1, 9] [µM] | IC50 [2, 10] [µM] | GI50 [3] [µM] | GI50 [4, 11] [µM] | GI50 [5, 12] [µM] | GI50 [6] [µM] | GI50 [7] [µM] | GI50 [8] [µM] | IC50 [2, 13] [µM] | GI50 [5, 14] [µM] | GI50 [4, 15] [µM] | GI50 ([1]; read-out: cytotoxicity GI50, CAKI-1, 50% growth inhibition, average of two determinations, 8640 min) [µM]
1 | CCc1ccc(N=Cc2cc(OC)c(OC)c(OC)c2)cc1 [108b, 4-Ethyl-N-(3,4,5-trimethoxybenzylidene)aniline] | > 100 | > 40 | > 100 | > 100 | > 100 | > 100 | – | – | – | – | – | –
2 | COc1ccc(N=Cc2cc(OC)c(OC)c(OC)c2)cc1 [108c, 4-Methoxy-N-(3,4,5-trimethoxybenzylidene)aniline] | > 100 | > 40 | – | > 100 | – | 33 | – | – | – | – | – | –
3 | CCOc1ccc(N=Cc2cc(OC)c(OC)c(OC)c2)cc1 [108d, 4-Ethoxy-N-(3,4,5-trimethoxybenzylidene)aniline] | > 100 | > 40 | > 100 | > 100 | > 100 | > 100 | > 100 | – | – | – | – | –
4 | COc1cc(C=Nc2ccc(C(C)C)cc2)cc(OC)c1OC [108f, 4-Isopropyl-N-(3,4,5-trimethoxybenzylidene)aniline] | > 100 | > 40 | > 100 | > 100 | > 100 | 52.5 | > 100 | > 100 | – | – | – | –
5 | CCCc1ccc(N=Cc2cc(OC)c(OC)c(OC)c2)cc1 [108g, 4-n-Propyl-N-(3,4,5-trimethoxybenzylidene)aniline] | > 100 | > 40 | > 100 | > 100 | > 100 | > 100 | 22.6 | > 100 | – | – | – | –
6 | COc1cc(CNc2ccc(C)cc2)cc(OC)c1OC [109a, 4-Methyl-N-(3,4,5-trimethoxybenzyl)aniline] | – | 6 | 0.163 | – | – | 0.0926 | 0.122 | 0.152 | 6 | 0.15 | – | –
7 | CCc1ccc(NCc2cc(OC)c(OC)c(OC)c2)cc1 [109b, 4-Ethyl-N-(3,4,5-trimethoxybenzyl)aniline] | 0.354 | 3 | 0.266 | – | – | 0.135 | 0.168 | 0.344 | 3 | 0.315 | 0.283 | –
8 | COc1ccc(NCc2cc(OC)c(OC)c(OC)c2)cc1 [109c, 4-Methoxy-N-(3,4,5-trimethoxybenzyl)aniline] | – | 4.6 | 0.266 | – | – | 0.141 | 0.115 | 0.235 | – | – | 0.363 | 0.458
